# Measured values from US20240124454A1, “TRICYCLIC COMPOUND AND USE THEREOF” (NANJING ZAIMING PHARMACEUTICAL CO., LTD., priority 2020, published 2024).
# Assays:
# HCT116 MTAP^−/− cells = assay: Determination of intracellular SAM level by LC-MS/MS; type: cell-based; conditions: Homo sapiens, HCT-116, 6 h, read-out: SAM production inhibitory activity IC50
# Protocol: Test Example 2. Determination of Intracellular SAM Level
# The brief introduction of the test principle: After the test MAT2A inhibitor was incubated with cancer cells for a period of time, the cells were lysed with a stop reagent to quench the activity of the MAT2A enzyme. The catalytic product SAM of MAT2A in the cell lysate was quantitatively determined by LC-MS/MS, and thus the activity of MAT2A in the cell was reflected.
# Reference: The experiment referred to the method disclosed in patent WO2018045071.
# Material and cell: HCT116 MTAP^−/− cells were purchased from KYinno; fetal bovine serum, McCoy's 5a culture medium, and penicillin-streptomycin were purchased from Gibco Company (U.S.), and 96-well plates were purchased from Corning Company (U.S.).
# Cell culture: HCT116 MTAP^−/− cells were cultured with a McCoy's 5a medium containing 10% fetal bovine serum+1% penicillin-streptomycin at 37° C. with 5% CO2. Cells at logarithmic growth phase were available for the experiment.
# LC-MS/MS detection: The effect of the compound on the SAM production level in HCT116 MTAP^−/− cell strains was detected by LC-MS/MS. The cells were adjusted to a concentration of 50000 cells per well, seeded on a 96-well plate, and incubated overnight at 37° C. with 5% CO2. In the experimental group, the test compound was dissolved in DMSO, diluted sequentially with DMSO and a culture medium, and transferred to a cell plate at a final concentration of 10 μM, 3-fold dilution. The cells were continuously cultured at 37° C. with 5% CO2 for 6 h. The supernatant was pipetted off. After the cells were washed once with PBS, glacial acetic acid was added to lyse the cells. After the lysate was processed, the SAM concentration was determined by LC-MS/MS analysis.
# A negative control group and a positive control group were respectively used as Bottom and Top. The negative control group was added with 10 μM positive compound (compound 072 of Example 51 of patent WO2021139775A1) in the same volume, and other operations were consistent with those of the experimental group. The positive control group was not added with the test compound, only added with DMSO in the same volume, and other operations were consistent with those of the experimental group.
# The % Compound inhibition was calculated and fitted to give the IC50 of the compound.
# % Compound inhibition=1−100%×(Signal−Bottom)/(Top−Bottom)
# Signal referred to the signal value of the experimental group, Bottom referred to the average signal value of the negative control group, and Top referred to the average signal value of the positive control group.
# hERG potassium channel = hERG potassium channel (Homo sapiens (Human), UniProt Q12809); assay: hERG inhibitory activity, manual patch-clamp in HEK293 cells; type: cell-based; conditions: HEK293 stably expressing hERG
# Protocol: Test Example 8. Assay for hERG Inhibitory Activity of Compound of Present Application
# The inhibition of hERG activity by the compounds of the present application was determined using the following method.
# I. Experimental materials and instruments • 1. Dialyzed fetal bovine serum Shanghai Bohan Biotechnology Co., Ltd (BS-0005-500) • 2. DMEM culture medium Thermo Fisher Scientific (China) Co., Ltd. (10569) • 3. HEPES Thermo Fisher Scientific (China) Co., Ltd. (15630080) • 4. Trypsin Thermo Fisher Scientific (China) Co., Ltd. (2192509) • 5. Penicillin-streptomycin solution Thermo Fisher Scientific (China) Co., Ltd. (15140-122) • 6. MEM non-essential amino acid solution Thermo Fisher Scientific (China) Co., Ltd. (11140) • 7. Geneticin (G418) Thermo Fisher Scientific (China) Co., Ltd. (11811031) • 8. Blasticidin Thermo Fisher Scientific (China) Co., Ltd. (R21001) • 9. PolylysineThermo Fisher Scientific (China) Co., Ltd. (P4832) • 10. Dofetilide Beijing Express Technology Co., Ltd. (D525700) • 11. Doxycycline Sigma-Aldrich (Shanghai) Trading Co., Ltd. (D9891) • 12. Carbon dioxide incubator Thermo Fisher Scientific (China) Co., Ltd. (371) • 13. Puller Sutter Company, U.S. (P-97) • 14. Micromanipulator Siskiyou Company, U.S. (MC1000e) • 15. Micromanipulator Sutter Company, U.S. (ROE-200; MP285) • 16. Amplifier HEKA Company, Germany (EPC10) • 17. Microscope Olympus (China) Co., Ltd. (IX51/71/73) • 18. Perfusion system ALA Company, U.S. (VM8 gravity administration system)
# II. Culture of cell lines and cells
# HEK293 cells (Cat. No: K1236) stably expressing hERG ion channel were purchased from Invitrogen. The cells were cultured in a culture medium containing 85% DMEM, 10% dialyzed fetal bovine serum, 0.1 mM non-essential amino acid solution, 100 U/mL penicillin-streptomycin solution, 25 mM HEPES, 5 μg/mL blasticidin, and 400 μg/mL geneticin. When the cell density increased to 40-80% of the bottom area of the culture dish, the cells were digested with trypsin and subcultured thrice every week. Before the experiment, the cells were cultured at a density of 5×10^5 in 6-cm culture dishes, induced for 48 h with 1 μg/mL doxycycline, and then digested and inoculated on a slide for the subsequent manual patch-clamp experiment.
# III. Preparation of solutions
# 1) Extracellular fluid: 132 mM sodium chloride, 4 mM potassium chloride, 3 mM calcium chloride, 0.5 mM magnesium chloride, 11.1 mM glucose, and 10 mM HEPES (adjusted to pH 7.35 with sodium hydroxide).
# 2) Intracellular fluid: 140 mM potassium chloride, 2 mM magnesium chloride, 10 mM EGTA, 5 mM ATP-magnesium salt, and 10 mM HEPES (adjusted to pH 7.35 with potassium hydroxide).
# Note: the osmotic pressure of the solutions was controlled at 280-300 mOsmol/kg. The solutions were filtered and stored at 4° C. before use. The ATP-magnesium salt was prepared into a 100 mM stock solution, subpackaged, and stored in a −20° C. refrigerator. On the day of the experiment, a certain amount of the stock solution was added into the intracellular fluid right before use.
# 1) The slides carrying HEK293 cells in the culture dish were placed in the perfusion chamber of the micromanipulation stage.
# 2) Appropriate cells were placed in the center of the field of view under an Olympus IX51, IX71, or IX73 inverted microscope. The tip of the glass electrode was found using a 10× objective lens and placed in the center of the field of view. The electrode was then moved down using a micromanipulator while the electrode was slowly brought into proximity to the cell using the coarse adjustment.
# 3) When the electrode was in close proximity to the cell, the lens was switched to a 40× objective lens for observation. The micromanipulator was used for fine adjustment to make the electrode approach the surface of the cell gradually.
# 4) Negative pressure was applied to form a seal with a resistance higher than 1 GΩ between the electrode tip and the cell membrane. […]
# Sequence of hERG potassium channel (Q12809 whole entry): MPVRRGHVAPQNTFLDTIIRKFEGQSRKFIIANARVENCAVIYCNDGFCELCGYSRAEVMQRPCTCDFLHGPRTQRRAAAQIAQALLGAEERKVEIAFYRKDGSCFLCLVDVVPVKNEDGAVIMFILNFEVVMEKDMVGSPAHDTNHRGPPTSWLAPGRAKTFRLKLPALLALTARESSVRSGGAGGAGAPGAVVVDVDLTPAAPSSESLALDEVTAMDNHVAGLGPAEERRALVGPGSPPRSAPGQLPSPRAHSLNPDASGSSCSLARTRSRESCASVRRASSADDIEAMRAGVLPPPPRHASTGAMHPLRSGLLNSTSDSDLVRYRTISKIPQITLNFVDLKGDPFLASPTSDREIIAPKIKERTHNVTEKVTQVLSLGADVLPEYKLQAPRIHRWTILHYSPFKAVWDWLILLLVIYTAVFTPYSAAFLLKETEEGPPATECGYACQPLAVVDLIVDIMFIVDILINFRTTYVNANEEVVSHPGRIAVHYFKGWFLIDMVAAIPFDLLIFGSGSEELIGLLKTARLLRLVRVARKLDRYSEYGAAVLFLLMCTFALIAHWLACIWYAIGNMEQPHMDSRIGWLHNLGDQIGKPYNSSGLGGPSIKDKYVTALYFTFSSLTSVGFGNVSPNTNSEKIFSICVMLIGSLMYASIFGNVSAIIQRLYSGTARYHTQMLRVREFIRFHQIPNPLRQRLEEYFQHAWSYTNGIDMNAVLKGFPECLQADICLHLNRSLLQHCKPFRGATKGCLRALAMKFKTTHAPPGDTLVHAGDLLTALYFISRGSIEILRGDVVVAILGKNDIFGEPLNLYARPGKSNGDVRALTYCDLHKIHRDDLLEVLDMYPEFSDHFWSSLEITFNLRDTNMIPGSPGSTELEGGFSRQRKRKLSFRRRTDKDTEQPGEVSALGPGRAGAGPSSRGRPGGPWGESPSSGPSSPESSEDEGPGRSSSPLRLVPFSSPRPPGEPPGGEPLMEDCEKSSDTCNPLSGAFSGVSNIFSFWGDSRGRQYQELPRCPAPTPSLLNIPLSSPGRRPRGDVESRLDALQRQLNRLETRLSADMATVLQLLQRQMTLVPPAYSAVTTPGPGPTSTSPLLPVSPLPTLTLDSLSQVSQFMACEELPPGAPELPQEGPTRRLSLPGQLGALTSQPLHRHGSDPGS
IC50 (HCT116 MTAP^−/− cells) [nM],SMILES,IC50 (hERG potassium channel) [nM]
3,"Cc1ncccc1-n1c(=O)c2ncn(C)c2c2ccc(C(F)(F)F)nc21 (atropisomer, axis not shown) [Compound 20, 1-methyl-5-(2-methylpyridin-3-yl)-7-(trifluoromethyl)-1,5-dihydro-4H-imidazo[4,5-c][1,8]naphthyridin-4-one]",> 30
4.4,"Cn1cnc2c(=O)n(-c3cccc(F)c3Cl)c3nc(C(F)(F)F)ccc3c21 (atropisomer, axis not shown) [Compound 25, 5-(2-chloro-3-fluorophenyl)-1-methyl-7-(trifluoromethyl)-1,5-dihydro-4H-imidazo[4,5-c][1,8]naphthyridin-4-one]",> 30
2.8,"Cn1cnc2c(=O)n(-c3cccc(F)c3Cl)c3nc(C(F)(F)F)ccc3c21 (single isomer, unassigned) [Compound 25-P2, 5-(2-chloro-3-fluorophenyl)-1-methyl-7-(trifluoromethyl)-1,5-dihydro-4H-imidazo[4,5-c][1,8]naphthyridin-4-one]",> 30
4.6,"Cn1cnc2c(=O)n(-c3cccnc3C(F)(F)F)c3nc(C(F)(F)F)ccc3c21 (single isomer, unassigned) [Compound 41-P2, 1-methyl-7-(trifluoromethyl)-5-(2-(trifluoromethyl)pyridin-3-yl)-1,5-dihydro-4H-imidazo[4,5-c][1,8]naphthyridin-4-one]",> 30
,"Cn1cnc2c(=O)n(-c3cccnc3C3CC3)c3nc(C(F)(F)F)ccc3c21 (single isomer, unassigned) [Compound 42-P2, 5-(2-cyclopropylpyridin-3-yl)-1-methyl-7-(trifluoromethyl)-1,5-dihydro-4H-imidazo[4,5-c][1,8]naphthyridin-4-one]",> 30
,"Cn1cnc2c(=O)n(-c3cccnc3C3CC3)c3cc(C(F)(F)F)ccc3c21 (single isomer, unassigned) [Compound 48-P2, 5-(2-cyclopropylpyridin-3-yl)-1-methyl-7-(trifluoromethyl)-1,5-dihydro-4H-imidazo[4,5-c]quinolin-4-one]",> 30
,"O=c1c2ncoc2c2ccc(C(F)(F)F)nc2n1-c1cccnc1C1CC1 (single isomer, unassigned) [Compound 81-P2, 5-(2-cyclopropylpyridin-3-yl)-7-(trifluoromethyl)oxazolo[4,5-c][1,8]naphthyridin-4(5H)-one]",> 30
,"Cn1cnc2c(=O)n(-c3cccc(F)c3Cl)c3cc(Cl)ccc3c21 [Compound 39, 7-chloro-5-(2-chloro-3-fluorophenyl)-1-methyl-1,5-dihydro-4H-imidazo[4,5-c]quinolin-4-one]",> 30
,"Cc1ncccc1-n1c(=O)c2ncoc2c2ccc(C(F)(F)F)nc21 [Compound 40, 5-(2-methylpyridin-3-yl)-7-(trifluoromethyl)oxazolo[4,5-c][1,8]naphthyridin-4(5H)-one]",> 30
,"Cc1ncccc1-n1c(=O)c2ncn(C)c2c2ccc(C(F)(F)F)cc21 [Compound 45, 1-methyl-5-(2-methylpyridin-3-yl)-7-(trifluoromethyl)-1,5-dihydro-4H-imidazo[4,5-c]quinolin-4-one]",> 30

SMILES,IC50 (HCT116 MTAP^−/− cells) [nM],IC50 (hERG potassium channel) [nM]
"Cn1cnc2c(=O)n(-c3cccnc3C3CC3)c3cc(Cl)ccc3c21 (single isomer, unassigned) [Compound 49-P2, 7-chloro-5-(2-cyclopropylpyridin-3-yl)-1-methyl-1,5-dihydro-4H-imidazo[4,5-c]quinolin-4-one]",1.9,> 30
